Legend:
Test in all cases: biochemical
Parameters in all cases: DiscoveRx KINOMEscan competition binding, percent of DMSO control signal at 100 nM
Settings in all cases: read-out: Fig. 4a / Percent Control / Compound 1; percent of DMSO control, competition binding
BMPR1B = BMPR1B (Homo sapiens, UniProt O00238)
[1] = target: T1, ABL1(E255K)-phosphorylated (Homo sapiens, UniProt P00519, E255K)
T1 construct: phosphorylated

CDC2L1 = target: T2, CDC2L1 (Homo sapiens, UniProt P21127)
T2 construct: gene CDK11B

RET = RET (Homo sapiens, UniProt P07949)
ABL1-nonphosphorylated = target: T3, ABL1-nonphosphorylated (Homo sapiens, UniProt P00519)
T3 construct: nonphosphorylated

RET(V804M) = RET(V804M) (Homo sapiens, UniProt P07949, V804M)
MARK2 = MARK2 (Homo sapiens, UniProt Q7KZI7)
FLT3(N841I) = FLT3(N841I) (Homo sapiens, UniProt P36888, N841I)
p38-beta = target: T4, p38-beta (Homo sapiens, UniProt Q15759)
T4 construct: gene MAPK11

TYRO3 = TYRO3 (Homo sapiens, UniProt Q06418)
BMX = BMX (Homo sapiens, UniProt P51813)
S6K1 = target: T5, S6K1 (Homo sapiens, UniProt P23443)
T5 construct: gene RPS6KB1

IGF1R = IGF1R (Homo sapiens, UniProt P08069)
FGFR2 = FGFR2 (Homo sapiens, UniProt P21802)
KIT-autoinhibited = KIT-autoinhibited (Homo sapiens, UniProt P10721)
SGK3 = SGK3 (Homo sapiens, UniProt Q96BR1)
CAMK4 = CAMK4 (Homo sapiens, UniProt Q16566)
PLK3 = PLK3 (Homo sapiens, UniProt Q9H4B4)
CDK3 = CDK3 (Homo sapiens, UniProt Q00526)
NEK2 = NEK2 (Homo sapiens, UniProt P51955)
AURKB = AURKB (Homo sapiens, UniProt Q96GD4)
ERK1 = target: T6, ERK1 (Homo sapiens, UniProt P27361)
T6 construct: gene MAPK3

NEK11 = NEK11 (Homo sapiens, UniProt Q8NG66)
MST1 = target: T7, MST1 (Homo sapiens, UniProt Q13043)
T7 construct: gene STK4

TAOK2 = TAOK2 (Homo sapiens, UniProt Q9UL54)
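Note: KINOMEscan kinase panel binding assay, signal normalized between DMSO as 100% and a positive control compound as 0%.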

Sequence of RET (P07949 whole entry): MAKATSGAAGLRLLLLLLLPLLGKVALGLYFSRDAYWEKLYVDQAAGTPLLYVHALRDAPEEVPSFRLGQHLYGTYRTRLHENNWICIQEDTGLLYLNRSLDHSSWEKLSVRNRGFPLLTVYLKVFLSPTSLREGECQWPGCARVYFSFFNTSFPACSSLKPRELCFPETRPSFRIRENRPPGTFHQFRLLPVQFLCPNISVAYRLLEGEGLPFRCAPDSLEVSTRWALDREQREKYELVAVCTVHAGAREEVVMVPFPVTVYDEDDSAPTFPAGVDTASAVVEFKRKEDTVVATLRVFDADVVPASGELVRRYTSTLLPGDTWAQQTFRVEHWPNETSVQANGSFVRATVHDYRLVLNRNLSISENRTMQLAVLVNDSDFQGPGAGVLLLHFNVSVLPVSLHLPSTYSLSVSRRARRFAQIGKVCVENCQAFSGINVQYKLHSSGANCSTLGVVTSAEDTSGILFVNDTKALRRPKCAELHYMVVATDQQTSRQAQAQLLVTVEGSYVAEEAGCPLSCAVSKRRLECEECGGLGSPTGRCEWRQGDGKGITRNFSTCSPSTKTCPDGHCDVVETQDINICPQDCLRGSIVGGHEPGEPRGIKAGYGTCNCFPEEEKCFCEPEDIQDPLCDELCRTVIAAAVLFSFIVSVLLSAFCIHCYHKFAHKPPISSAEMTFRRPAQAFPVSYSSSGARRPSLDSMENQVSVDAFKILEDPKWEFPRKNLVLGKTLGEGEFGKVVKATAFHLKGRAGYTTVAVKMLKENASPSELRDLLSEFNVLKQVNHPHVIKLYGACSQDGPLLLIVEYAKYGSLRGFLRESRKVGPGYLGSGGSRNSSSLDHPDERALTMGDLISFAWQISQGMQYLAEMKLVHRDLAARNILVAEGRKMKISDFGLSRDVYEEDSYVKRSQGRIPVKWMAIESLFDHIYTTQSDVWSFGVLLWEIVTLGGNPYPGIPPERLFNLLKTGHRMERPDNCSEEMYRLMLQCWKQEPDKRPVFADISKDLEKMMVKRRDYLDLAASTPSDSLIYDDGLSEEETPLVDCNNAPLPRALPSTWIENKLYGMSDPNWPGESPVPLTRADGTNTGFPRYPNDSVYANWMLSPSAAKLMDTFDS
Sequence of SGK3 (Q96BR1 whole entry): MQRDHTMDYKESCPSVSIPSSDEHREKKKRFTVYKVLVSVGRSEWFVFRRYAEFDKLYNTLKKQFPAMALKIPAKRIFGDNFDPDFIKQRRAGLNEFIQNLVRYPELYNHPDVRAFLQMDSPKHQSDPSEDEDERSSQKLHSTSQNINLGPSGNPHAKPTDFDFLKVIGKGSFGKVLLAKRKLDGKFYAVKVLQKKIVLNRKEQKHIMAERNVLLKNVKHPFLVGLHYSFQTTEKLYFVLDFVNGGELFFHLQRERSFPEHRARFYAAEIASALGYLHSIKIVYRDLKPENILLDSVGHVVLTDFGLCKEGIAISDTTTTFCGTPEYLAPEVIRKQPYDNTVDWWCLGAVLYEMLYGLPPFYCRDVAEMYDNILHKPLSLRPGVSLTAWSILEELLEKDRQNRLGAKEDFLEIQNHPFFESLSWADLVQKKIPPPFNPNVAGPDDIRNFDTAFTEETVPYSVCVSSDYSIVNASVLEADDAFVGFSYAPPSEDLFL
T2 sequence (P21127 whole entry): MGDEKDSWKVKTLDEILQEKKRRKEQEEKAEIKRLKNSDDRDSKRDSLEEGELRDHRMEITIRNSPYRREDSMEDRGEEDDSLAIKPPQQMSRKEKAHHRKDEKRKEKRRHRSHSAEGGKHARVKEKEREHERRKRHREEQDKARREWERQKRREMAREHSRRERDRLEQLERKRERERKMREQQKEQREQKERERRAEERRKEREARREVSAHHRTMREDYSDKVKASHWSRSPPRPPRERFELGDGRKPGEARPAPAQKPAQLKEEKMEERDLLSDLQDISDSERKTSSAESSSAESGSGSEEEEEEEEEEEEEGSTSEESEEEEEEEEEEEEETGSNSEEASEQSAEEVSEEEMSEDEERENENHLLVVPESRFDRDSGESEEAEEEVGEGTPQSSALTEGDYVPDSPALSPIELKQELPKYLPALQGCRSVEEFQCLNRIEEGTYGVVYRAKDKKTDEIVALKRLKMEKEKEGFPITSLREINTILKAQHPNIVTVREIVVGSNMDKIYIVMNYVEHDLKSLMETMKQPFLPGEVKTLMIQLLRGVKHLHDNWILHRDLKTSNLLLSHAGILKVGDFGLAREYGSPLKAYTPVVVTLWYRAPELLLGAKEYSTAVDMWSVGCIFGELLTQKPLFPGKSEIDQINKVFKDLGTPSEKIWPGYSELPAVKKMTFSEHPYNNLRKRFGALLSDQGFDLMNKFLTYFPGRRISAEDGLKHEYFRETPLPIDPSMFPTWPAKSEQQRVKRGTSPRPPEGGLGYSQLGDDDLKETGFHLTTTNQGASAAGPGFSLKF
Sequence of BMX (P51813 whole entry): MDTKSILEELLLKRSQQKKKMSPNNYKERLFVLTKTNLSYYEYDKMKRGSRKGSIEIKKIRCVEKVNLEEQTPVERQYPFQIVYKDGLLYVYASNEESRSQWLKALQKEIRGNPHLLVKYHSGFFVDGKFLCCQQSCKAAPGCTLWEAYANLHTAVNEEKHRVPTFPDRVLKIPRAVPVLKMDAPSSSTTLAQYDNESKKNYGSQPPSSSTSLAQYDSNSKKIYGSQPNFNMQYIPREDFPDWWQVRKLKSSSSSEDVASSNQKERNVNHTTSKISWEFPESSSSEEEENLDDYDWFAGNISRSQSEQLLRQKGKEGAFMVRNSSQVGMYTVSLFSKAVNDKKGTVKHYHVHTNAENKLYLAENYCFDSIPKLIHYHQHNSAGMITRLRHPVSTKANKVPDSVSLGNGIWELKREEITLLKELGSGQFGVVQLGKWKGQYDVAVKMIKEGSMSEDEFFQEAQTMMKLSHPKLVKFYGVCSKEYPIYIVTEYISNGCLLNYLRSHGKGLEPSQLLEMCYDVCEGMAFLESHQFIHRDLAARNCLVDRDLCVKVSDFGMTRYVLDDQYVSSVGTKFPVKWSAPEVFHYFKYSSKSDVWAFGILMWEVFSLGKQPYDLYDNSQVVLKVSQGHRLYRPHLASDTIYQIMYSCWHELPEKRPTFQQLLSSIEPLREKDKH
Sequence of BMPR1B (O00238 whole entry): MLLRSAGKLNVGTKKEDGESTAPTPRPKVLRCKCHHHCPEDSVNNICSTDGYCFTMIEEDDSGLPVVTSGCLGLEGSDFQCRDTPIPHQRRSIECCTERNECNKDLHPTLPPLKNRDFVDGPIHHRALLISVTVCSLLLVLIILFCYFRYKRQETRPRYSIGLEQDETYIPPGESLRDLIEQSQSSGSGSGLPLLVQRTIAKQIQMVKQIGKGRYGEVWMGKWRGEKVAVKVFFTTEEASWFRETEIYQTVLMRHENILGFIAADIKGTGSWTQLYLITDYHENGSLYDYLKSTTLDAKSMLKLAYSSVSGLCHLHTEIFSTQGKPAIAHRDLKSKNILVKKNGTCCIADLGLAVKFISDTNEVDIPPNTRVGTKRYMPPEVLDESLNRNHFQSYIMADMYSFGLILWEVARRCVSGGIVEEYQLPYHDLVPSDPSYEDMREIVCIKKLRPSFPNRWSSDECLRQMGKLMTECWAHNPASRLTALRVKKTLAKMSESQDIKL
Sequence of TYRO3 (Q06418 whole entry): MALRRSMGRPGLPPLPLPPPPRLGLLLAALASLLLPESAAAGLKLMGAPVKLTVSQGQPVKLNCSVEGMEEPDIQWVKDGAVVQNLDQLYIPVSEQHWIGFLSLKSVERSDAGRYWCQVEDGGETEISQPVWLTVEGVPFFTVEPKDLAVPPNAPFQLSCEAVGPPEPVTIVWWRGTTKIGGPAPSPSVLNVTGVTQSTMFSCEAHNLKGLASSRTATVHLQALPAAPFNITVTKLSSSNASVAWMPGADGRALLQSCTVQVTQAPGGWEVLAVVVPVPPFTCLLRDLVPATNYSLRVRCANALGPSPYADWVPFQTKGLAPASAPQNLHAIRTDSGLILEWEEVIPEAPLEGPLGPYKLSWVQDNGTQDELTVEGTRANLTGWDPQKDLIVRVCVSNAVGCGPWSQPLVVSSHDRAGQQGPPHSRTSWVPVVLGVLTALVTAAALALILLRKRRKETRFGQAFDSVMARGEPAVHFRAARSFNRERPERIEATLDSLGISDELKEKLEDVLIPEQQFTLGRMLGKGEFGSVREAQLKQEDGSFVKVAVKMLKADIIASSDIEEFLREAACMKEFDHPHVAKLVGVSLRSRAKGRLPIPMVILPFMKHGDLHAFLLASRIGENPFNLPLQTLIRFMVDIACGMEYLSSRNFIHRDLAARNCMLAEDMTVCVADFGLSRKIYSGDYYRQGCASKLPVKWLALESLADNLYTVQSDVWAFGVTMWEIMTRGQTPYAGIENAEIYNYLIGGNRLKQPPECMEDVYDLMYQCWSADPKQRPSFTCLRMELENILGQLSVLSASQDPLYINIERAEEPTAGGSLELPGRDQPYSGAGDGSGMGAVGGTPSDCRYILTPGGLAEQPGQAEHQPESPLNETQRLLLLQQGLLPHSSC
T6 sequence (P27361 whole entry): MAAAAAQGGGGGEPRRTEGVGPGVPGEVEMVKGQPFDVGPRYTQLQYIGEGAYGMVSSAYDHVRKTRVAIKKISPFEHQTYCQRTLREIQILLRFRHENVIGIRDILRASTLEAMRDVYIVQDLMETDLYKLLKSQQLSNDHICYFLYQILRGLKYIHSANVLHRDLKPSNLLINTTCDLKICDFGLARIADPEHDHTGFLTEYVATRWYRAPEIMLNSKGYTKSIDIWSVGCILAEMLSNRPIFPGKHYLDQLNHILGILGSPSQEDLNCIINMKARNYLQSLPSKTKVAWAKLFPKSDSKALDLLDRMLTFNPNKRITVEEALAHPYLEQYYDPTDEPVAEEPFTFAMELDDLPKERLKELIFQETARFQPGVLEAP
Sequence of RET(V804M) (P07949 whole entry V804M): as the sequence (P07949 whole entry) above, with V804M counted along it

Cc1cnc2nc1Nc1cccc(c1)COCc1cc(ccc1OCCN1CCCC1)N2 [Compound 1]
remaining binding at 0.1 µM (BMPR1B): 63% | remaining binding at 0.1 µM [1]: 79% | remaining binding at 0.1 µM (CDC2L1): 96% | remaining binding at 0.1 µM (RET): 96% | remaining binding at 0.1 µM (ABL1-nonphosphorylated): 55% | remaining binding at 0.1 µM (RET(V804M)): 80% | remaining binding at 0.1 µM (MARK2): 89% | remaining binding at 0.1 µM (FLT3(N841I)): 3.5% | remaining binding at 0.1 µM (p38-beta): 86% | remaining binding at 0.1 µM (TYRO3): 55% | remaining binding at 0.1 µM (BMX): 93% | remaining binding at 0.1 µM (S6K1): 98% | remaining binding at 0.1 µM (IGF1R): 91% | remaining binding at 0.1 µM (FGFR2): 79% | remaining binding at 0.1 µM (KIT-autoinhibited): 86% | remaining binding at 0.1 µM (SGK3): 91% | remaining binding at 0.1 µM (CAMK4): 100% | remaining binding at 0.1 µM (PLK3): 99% | remaining binding at 0.1 µM (CDK3): 91% | remaining binding at 0.1 µM (NEK2): 83% | remaining binding at 0.1 µM (AURKB): 82% | remaining binding at 0.1 µM (ERK1): 100% | remaining binding at 0.1 µM (NEK11): 69% | remaining binding at 0.1 µM (MST1): 100% | remaining binding at 0.1 µM (TAOK2): 63%

Source: publication PMC10382584, “Macrocyclization of linear molecules by deep learning to facilitate macrocyclic drug candidates discovery” (Nature Communications, 2023)
